Reference: patent US20250312417A1, “Methods for Mitigating Lung Injury in Conjunction with Exposure to Radiation and/or Radiation or Radiomimetic Treatments” (Janssen Pharmaceutica NV, priority 2022, published 2025)

Tests used:
[1] = test system: mice exposed to 18 Gy WTI; experiment: 8-month survival study after 18 Gy WTI; type: in vivo, C57BL/6 male mice
Method: Mice were given a vehicle or TPOm injection (1 mg/kg), 1 day before irradiation (1×) or 1 day before irradiation and 7 days after radiation (2×) (n=10 for irradiated groups, n=5 for naïve). *P<0.05 vs. vehicle treated mice.
(§1) Methods: C57BL/6 male mice (9-12 weeks old) were administered with the TPOm RWJ-800088 (0.3 mg/kg) or PBS (vehicle) subcutaneously 1 day prior to whole thoracic radiation (WTI) at 16 Gy delivered by x-ray. Mice were sacrificed at 2 weeks and 7 months (n=5/time point/group) post-WTI to collect the lung tissues for various analysis. Groups of mice (n=10/group) exposed to 18 Gy WTI were also subjected to an 8-month survival study.

[2] = test system: lungs of mice after whole thoracic radiation (WTI); experiment: Protein in bronchoalveolar lavage by bicinchoninic acid assay (BCA) post-WTI; type: in vivo, C57BL/6 male mice; conditions: 2 weeks post-WTI 16 Gy; 0.3 mg/kg subcutaneously 1 day prior to WTI; p<0.05
Method: (§2) FIGS. 2A-2B show the effect of TPOm-pretreatment (1 day before irradiation at 0.3 mg/kg body weight by subcutaneous injection) on immune cell infiltration and permeability in the lungs of mice at 14 days post-WTI. […] 200× total magnification.
as §1

[3] = test system: lungs of mice after whole thoracic radiation (WTI); experiment: Collagen deposition in lungs by Trichrome Blue staining post-WTI; type: in vivo, C57BL/6 male mice; conditions: 7 months post-WTI 16 Gy; 0.3 mg/kg subcutaneously 1 day prior to WTI; p<0.05
Method: FIGS. 3A-3B show the effect of TPOm-pretreatment (1 day before irradiation at 0.3 mg/kg body weight by subcutaneous injection) on collagen deposition in lungs of mice at 7 months post-WTI. […] 200× total magnification.
as §1

[4] = test system: lungs of mice after whole thoracic radiation (WTI); experiment: KC protein in whole lung lysate by ELISA post-WTI; type: in vivo; conditions: post-WTI 16 Gy; 0.3 mg/kg subcutaneously 1 day before irradiation; FIG. 7A
Method: (§3) FIGS. 7A-C show TPOm-pretreatment (1 day before irradiation at 0.3 mg/kg body weight by subcutaneous injection) on neutrophil infiltration of mice measured at 7 months post-WTI. […] 400× total magnification. […] Data are shown as means±SE. *P<0.05, ***P<0.0001.
as §1
Methods: Mice were treated as described in Example 1. Whole lung lysate was prepared from left lung tissue at the time of harvest. KC ELISA kit (R&D Systems, #DY453) was used according to manufacturer's instructions. For each sample, 2 replicates were measured for KC protein.

[5] = test system: lungs of mice after whole thoracic radiation (WTI); experiment: Pulmonary density by microCT post-WTI; type: in vivo, C57BL/6 male mice; conditions: 7 months post-WTI 16 Gy; 0.3 mg/kg subcutaneously 1 day prior to WTI; p<0.05
Method: FIGS. 5A-5C show the effect of TPOm-pretreatment (1 day before irradiation at 0.3 mg/kg body weight by subcutaneous injection) on pulmonary density of mice at 7 months post-WTI. Pulmonary density imaged by microCT and measured by microCT analysis software. […] (n=3 for Naïve, n=5 for vehicle and n=4 for TPOm pretreatment). *P <0.05 vs. vehicle treated mice.
as §1

[6] = test system: lungs of mice after whole thoracic radiation (WTI); experiment: Myeloperoxidase (MPO) staining of lung sections for neutrophil infiltration post-WTI; type: in vivo; conditions: post-WTI 16 Gy; 0.3 mg/kg subcutaneously 1 day before irradiation; FIG. 7C
Method: as §3, §1
At the time of harvest, the right lung was fixed with 10% formalin, then embedded and sectioned at […]. Anti-myeloperoxidase (MPO) antibody was obtained from Abcam (Cambridge, MA, USA). Immunoreactivity was visualized by ImmPACT histochemistry (Vector Labs, Burlingame, CA, USA) with hematoxylin counter staining. For quantitation of MPO+ cells in lung tissue, images were analyzed with ImageJ software (National Institutes of Health); stained cells were counted using the “analyze particles” module to assess positive staining. Data were quantified from 3 fields of 1 section per animal, and 5 animals per group.

[7] = test system: lungs of mice after whole thoracic radiation (WTI); experiment: Proinflammatory chemokine mRNA expression in lungs after whole thoracic radiation (WTI) 16 Gy; type: in vivo, C57BL/6 male mice; conditions: 2 weeks post-WTI 16 Gy; 0.3 mg/kg subcutaneously 1 day prior to WTI; p<0.05
Method: Lung data is presented as fold change of chemokine expression normalized to Hprt1 expression (n=5 for Naïve, n=5 for Vehicle (phosphate buffered saline) and TPOm pretreatment). Expression in the naive group is designated as 1 for comparison. Data are shown as means±SE. *P<0.05 vs. vehicle treated mice.
as §1

[8] = test system: lungs of mice after whole thoracic radiation (WTI); experiment: Senescence marker mRNA expression in lungs (qPCR) post-WTI; type: in vivo, C57BL/6 male mice; conditions: 7 months post-WTI 16 Gy; 0.3 mg/kg subcutaneously 1 day prior to WTI; p<0.05
Method: FIGS. 4A-4C show the effect of TPOm-pretreatment (1 day before irradiation at 0.3 mg/kg body weight by subcutaneous injection) on senescence gene mRNA and protein expression in lungs of mice at 7 months post-WTI. mRNA and protein levels assessed by qPCR and western blot, respectively. […] Data are shown as means±SE. *P <0.05 vs. vehicle treated mice. […] Expression in the naive group is designated as 1 for comparison.
as §1

[9] = test system: lungs of mice after whole thoracic radiation (WTI); experiment: H&E staining of lung sections for cellularity and immune infiltration post-WTI; type: in vivo, C57BL/6 male mice; conditions: 2 weeks post-WTI 16 Gy; 0.3 mg/kg subcutaneously 1 day prior to WTI
Method: as §2, §1

methoxypolyethyleneglycol20000-propionyl-L-Isoleucyl-L-Glutamyl-Glycyl-L-Prolyl-L-Threonyl-L-Leucyl-L-Arginyl-L-Glutaminyl-L-2-Naphthylalanyl-L-Leucyl-L-Alanyl-L-Alanyl-L-Arginyl-Sarcosyl-Ne-(methoxypolyethyleneglycol20000-propionyl-L-Isoleucyl-L-Glutamyl-Glycyl-L-Prolyl-L-Threonyl-L-Leucyl-L-Arginyl-L-Glutaminyl-L-2-Naphthylalanyl-L-Leucyl-L-Alanyl-L-Alanyl-L-Arginyl-Sarcosyl-)-Lysinamide [TPOm]
survival ([1]; vehicle 0%, p<0.01): 40% | mortality ([1]; vs vehicle): significantly delayed in mortality | protein leaked to bronchoalveolar lavage fluid, less than vehicle [2]: 28% | collagen deposition, lower than vehicle (Trichrome Blue staining) [3]: 31% | protein expression of KC in the lung (ELISA) [4]: significantly reduced in the TPOm (RWJ-800088) group to a level similar to naïve | density in lungs by microCT, less than vehicle [5]: 21% | alveolar neutrophil accumulation (MPO staining) [6]: alveolar neutrophil accumulation in significantly greater numbers than mice treated with TPOm | mRNA expression of proinflammatory chemokine KC in lungs, lower than vehicle [7]: 37% | mRNA expression of proinflammatory chemokine MCP1 in lungs, lower than vehicle [7]: 39% | mRNA levels of senescence marker p21, lower than vehicle [8]: 52% | cellularity by H&E staining [9]: higher cellularity in vehicle compared to TPOm treated mice
